Measurements reported in patent publication US5397780A, “Pyrroloazepine derivative” (Suntory Limited, priority 1993, dated 1995).

Experiments:
[1] = system: α1; experiment: Anti-α1 action: norepinephrine-induced tonic contraction of guinea pig thoracic aorta; set-up: species or system Hartley male guinea pig; conditions: contraction by 10^-5 M norepinephrine = 100%
Protocol: (§1) With respect to certain compounds of the present invention, their anti-α1 action and anti-serotonin (5-HT) action were investigated by the testing methods which will be described below.
The thoracic aorta of each Hartley male guinea pig (body weight: 300-500 g) was excised. A sample cut in a helical form was suspended under 1 g load in a Magnus cylinder filled with the Tyrode solution of 37° C. which had been saturated with a mixed gas consisting of 95% O2 +5% CO2. Using an isometric transducer ("TB-612J"/NIHON KOHDEN) and a pressure preamplifier ("AP-620G"/NIHON KOHDEN), variations in tension were measured. The measurement results were recorded on a thermal pen-writing recorder ("WT-647G"/NIHON KOHDEN).
Taking the tonic contraction induced by 10^-5 M norepinephrine (NE) as 100% the percent contractions upon addition of each test drug at 10^-8 and 10^-7 M were determined as anti-α1 action.

[2] = system: serotonin (5-HT); experiment: Anti-serotonin (anti-5-HT) action: serotonin-induced contraction of guinea pig superior mesenteric artery; set-up: species or system Hartley male guinea pig; conditions: contraction by 10^-5 M serotonin = 100%
Protocol: as §1
A sample cut in a helical form was suspended under 0.3 g load in a Magnus cylinder filled with the Tyrode solution of 37° C. which had been saturated with a mixed gas consisting of 95% O2 +5% CO2. Using an isometric transducer ("UL-10"/SHINKOH K.K.) and a pressure preamplifier ("DSA-605A"/SHINKOH K.K.), variations in tension were measured. The measurement results were recorded on a pen-writing recorder ("VP-6537A"/NATIONAL K.K.). Taking the contraction induced by 10^-5 M serotonin (5-HT) as 100% the percent contractions in the presence of each test drug at 10^-7 and 10^-6 M were determined as anti-5-HT action.

SMILES	Anti α1 action (% of Control), percent contraction ([1]; test drug 10^-7 M, 0.1 µM)	Anti α1 action (% of Control), percent contraction ([1]; test drug 10^-8 M, 0.01 µM)	Anti 5-HT action (% of Control), percent contraction ([2]; test drug 10^-6 M, 1 µM)	Anti 5-HT action (% of Control), percent contraction ([2]; test drug 10^-7 M, 0.1 µM)
O=C1CCN(Cc2ccccc2)C(=O)c2c1ccn2CCCCCN1CCN(c2ccccc2)CC1 [Compound No. 20, 7-Benzyl-1-[5-(4-phenylpiperazin-1-yl)pentyl]6,7-dihydropyrrolo[2,3-c]azepine-4,8(1H,5H)-dione]	19.9 % of Control	49.2 % of Control	45.7 % of Control	54.5 % of Control
CN1CCC(O)c2ccn(CCCCN3CCN(c4ccccc4)CC3)c2C1=O (stereo not drawn) [Compound No. 24, 4-hydroxy-7-methyl-1-[4-(4-phenylpiperazin-1-yl)butyl]-4,5,6,7-tetrahydropyrrolo[2,3-c]azepin-8(1H)-one]	41.0 % of Control	90.3 % of Control	36.0 % of Control	78.3 % of Control
CN1CCC(=NO)c2ccn(CCCCN3CCN(c4ccccc4)CC3)c2C1=O [Compound No. 27, 4-Hydroxyimino-7-methyl-1-[4-(4-phenylpiperazin-1-yl)butyl]-4,5,6,7-tetrahydropyrrolo[2,3-c]azepin-8(1H)-one]	18.4 % of Control	74.2 % of Control	25.7 % of Control	69.8 % of Control
CN1CCC(=NO)c2ccn(CCCCN3CCN(c4ccc(F)cc4)CC3)c2C1=O [Compound No. 29, 4-Hydroxyimino-7-methyl-1-[4-[4-(4-fluorophenyl)piperazin-1-yl]butyl]-4,5,6,7-tetrahydropyrrolo[2,3-c]azepin-8(1H)-one]	39.5 % of Control	94.2 % of Control	12.0 % of Control	66.2 % of Control
CN1CCC(=NO)c2ccn(CCCCN3CCN(c4cccc(Cl)c4)CC3)c2C1=O [Compound No. 31, 1-[4-[4-(3-Chlorophenyl)piperazin-1-yl]butyl]-4-hydroxyimino-7-methyl-4,5,6,7-tetrahydropyrrolo[2,3-c]azepin-8(1H)-one]	19.4 % of Control	93.9 % of Control	69.0 % of Control	86.2 % of Control
COc1ccccc1N1CCN(CCCCCn2ccc3c2C(=O)N(Cc2ccccc2)CCC3=O)CC1 [Compound No. 36, 7-Benzyl-1-[5-[4-(2-methoxyphenyl)piperazin-1-yl]pentyl]-6,7-dihydropyrrolo[2,3-c]azepine-4,8(1H,5H)-dione]	21.4 % of Control	43.6 % of Control	61.8 % of Control	84.0 % of Control
